Holding throughout (format): biochemical
One test concerns the target CDK1/CyclinB (Homo sapiens, UniProt P06493). The experiment in a line: Determination of CDK activity (Caliper mobility shift, FAM-P8 peptide): CDK1. The settings on record: CDK1/CyclinB; read-out: CDK1 enzymatic inhibitory activity (IC50). The procedure:
(§1) In vitro, CDK (CDK4, CDK6, CDK1, CDK2, CDK7, and CDK9) kinase activity was tested by the following method.
(§2) 1. Prepared 1× Kinase Buffer and Stop Buffer for the Test
(§3) 1) 1× Kinase Base Buffer (CDK1, 2, and 6).
(§4) 1) Diluted the compound to 50 times of the maximum concentration with 100% DMSO. For example, if the desired maximum inhibitory concentration is 10 μM, then a DMSO solution of 500 μM concentration is required.
(§5) 2) Transferred the compound to a 96-well plate and serially diluted the compound from a 100% DMSO solution at a ratio of 30 μm to 60 μm for a total of 10 concentrations gradients. 3) Transferred 100 μm of 100% DMSO to two empty wells as a no compound control and a no enzyme control.
(§6) 1) Transferred 5 μm of each compound from the 96-well intermediate plate to a 384-well plate. […] A2 of the 96-well plate was transferred to A3 and A4 of the 384-well plate, and so on.
(§7) 1) Prepared a 2.5× enzyme solution: added kinase into 1× kinase base buffer.
(§8) 2) Prepared a 2.5× peptide solution: added FAM-labeled peptide and ATP into the 1× kinase base buffer.
(§9) 3) Transferred the 2.5× enzyme solution to the assay plate: Assay plate already contained 5 μm of 10% DMSO and transferred 10 μm of 2.5× enzyme solution to each well.
(§10) 4) Incubated at room temperature for 10 min.
(§11) 5) Transferred the 2.5× peptide solution to the assay plate: added 10 μm of 2.5× peptide solution to each well of the 384-well assay plate.
(§12) 6) Kinase reaction and termination: incubated at 28° C. for a specified period and added 25 μm of stop buffer to stop the reaction.
(§13) 5. Caliper Reading: Collect Data on Caliper.
(§14) 1) Copied conversion data from Caliper program and Converted conversion values to inhibition values: Inhibition rate (%)=(1−OD value of the compound-OD value of the control well)/(OD value of the control empty-OD value of the control well)*100%.
(§15) 2) Fitted the data in XLFit excel add-in version 4.3.1 to give the corresponding IC50 values.

In the next test the target is CDK7/CyclinH/MAT1 (Homo sapiens, UniProt P50613). Put plainly: Determination of CDK activity (Caliper mobility shift, FAM-P8 peptide): CDK7. Particulars: CDK7/CyclinH/MAT1; read-out: CDK7 enzymatic inhibitory activity (IC50). The procedure: as §1
Sequence of CDK7/CyclinH/MAT1 (P50613 whole entry): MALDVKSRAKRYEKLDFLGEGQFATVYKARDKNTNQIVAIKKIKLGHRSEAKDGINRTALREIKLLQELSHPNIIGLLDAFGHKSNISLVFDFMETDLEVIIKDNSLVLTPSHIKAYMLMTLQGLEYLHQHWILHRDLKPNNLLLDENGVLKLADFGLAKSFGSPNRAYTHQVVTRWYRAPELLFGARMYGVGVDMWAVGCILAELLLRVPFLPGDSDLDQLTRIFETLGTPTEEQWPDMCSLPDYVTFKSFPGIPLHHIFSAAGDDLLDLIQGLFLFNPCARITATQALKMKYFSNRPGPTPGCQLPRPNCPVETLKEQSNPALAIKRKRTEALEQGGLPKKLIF
Sequence of CDK7/CyclinH/MAT1 (P51946 whole entry partner): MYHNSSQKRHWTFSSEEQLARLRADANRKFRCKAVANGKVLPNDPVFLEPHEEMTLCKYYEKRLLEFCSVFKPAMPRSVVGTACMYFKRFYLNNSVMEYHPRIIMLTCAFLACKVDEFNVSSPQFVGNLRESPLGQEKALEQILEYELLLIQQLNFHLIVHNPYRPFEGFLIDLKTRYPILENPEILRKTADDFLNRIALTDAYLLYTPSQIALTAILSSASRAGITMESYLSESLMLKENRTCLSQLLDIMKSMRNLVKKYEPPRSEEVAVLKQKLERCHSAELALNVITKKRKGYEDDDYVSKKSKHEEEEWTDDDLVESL
Sequence of CDK7/CyclinH/MAT1 (P51948 whole entry partner): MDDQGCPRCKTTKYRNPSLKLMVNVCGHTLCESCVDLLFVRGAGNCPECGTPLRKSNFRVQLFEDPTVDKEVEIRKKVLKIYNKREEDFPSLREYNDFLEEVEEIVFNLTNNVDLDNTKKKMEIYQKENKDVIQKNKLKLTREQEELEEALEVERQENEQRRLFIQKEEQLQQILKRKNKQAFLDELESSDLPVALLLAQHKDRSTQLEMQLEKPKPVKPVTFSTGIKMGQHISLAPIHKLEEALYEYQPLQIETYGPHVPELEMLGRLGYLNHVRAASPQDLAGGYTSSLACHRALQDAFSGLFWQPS
(§16) CDK and raw materials used here: CDK4/CycD3 (Carna, Cat. No 04-105, Lot. No 10CBS-0429 C, GST-CDK4(1-303end)/GST-CycD3(1-292end)); CDK6/cycD3 (Carna, Cat. No 04-107, Lot. No 09CBS-0622K, GST-CDK6(1-326(end))); CDK1/CyclinB (Millipore, Cat. 14-450k, Lot. No 25729U, His-CDK1+GST-cyclinB); CDK2/CycA2 (Carna, Cat. No 04-103, Lot. No 06CBS-3024, GST-CDK2 (1-298(end))); CDK7/CyclinH/MAT1 (Millipore, Cat. No 14-476M, Lot. No WAB0365-A, His-CDK7+GST-MAT1+cyclinH); CDK9/cyclinTl (Millipore, Cat. No 14-685K, Lot. No. 2476163-A, His-CDK9+cyclinTl); Peptide FAM-P8 (GL Biochem, Cat. No. 112396, Lot. No. P100804-XZ112396); ATP (Sigma, Cat. No. A7699-1G, CAS No. 987-65-5); DMSO (Sigma, Cat. No. D2650, Lot. No. 474382); EDTA (Sigma, Cat. No. E5134, CAS No. 60-00-4); 96-well plate (Corning, Cat. No. 3365, Lot. No. 22008026); 384-well plate (Corning, Cat. No. 3573, Lot. No. 12608008); Staurosporine (Sigma, Cat. No. S4400-1MG, Lot. No. 046K4080).
as §2
(§17) 3) 1× Kinase Base Buffer (CDK7 and 9).
as §4, §5
(§18) 4) Prepared intermediate plate and transferred the compound of 10 μm concentration from the original plate to the intermediate plate, and then 90 μm of 1× kinase buffer was added and mixed by shaking for 10 min.
(§19) 4) Preparing intermediate plate and transferred the compound of […] concentration from the original plate to the intermediate plate, and then 90 μm of 1× kinase buffer was added and mixed by shaking for 10 min.
(§20) 1) Transferred 5 μm of each compound from the 96-well intermediate plate to a 384-well plate. For example, A1 of the 96-well plate was transferred to A1 and A2 of the 384-well plate. A2 of the 96-well plate was transferred to A3 and A4 of the 384-well plate, and so on.
as §7, §8, §9, §10, §11, §12, §13, §14, §15

The next test has as its target CDK9/cyclinTl (Homo sapiens, UniProt P50750). The experiment in a line: Determination of CDK activity (Caliper mobility shift, FAM-P8 peptide): CDK9. Particulars: CDK9/cyclinTl; read-out: CDK9 enzymatic inhibitory activity (IC50). The procedure: as §1, §2, §17, §4, §5, §6, §7, §8, §9, §10, §11, §12, §13, §14, §15
In the next test the target is CDK4/CycD3 (Homo sapiens, UniProt P11802). Put plainly: Determination of CDK activity (Caliper mobility shift, FAM-P8 peptide): CDK4. The settings on record: CDK4/CycD3; read-out: CDK4 enzymatic inhibitory activity (IC50). The procedure: as §1, §16, §2
Sequence of CDK4/CycD3 (P11802 whole entry): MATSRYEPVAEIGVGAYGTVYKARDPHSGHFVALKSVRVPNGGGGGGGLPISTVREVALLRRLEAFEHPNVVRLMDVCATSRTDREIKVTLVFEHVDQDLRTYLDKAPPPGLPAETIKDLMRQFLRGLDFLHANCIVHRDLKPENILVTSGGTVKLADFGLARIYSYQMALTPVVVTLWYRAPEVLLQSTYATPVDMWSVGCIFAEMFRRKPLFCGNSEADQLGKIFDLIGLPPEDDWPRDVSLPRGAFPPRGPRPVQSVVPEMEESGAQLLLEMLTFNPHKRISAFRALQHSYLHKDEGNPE
Sequence of CDK4/CycD3 (P30281 whole entry partner): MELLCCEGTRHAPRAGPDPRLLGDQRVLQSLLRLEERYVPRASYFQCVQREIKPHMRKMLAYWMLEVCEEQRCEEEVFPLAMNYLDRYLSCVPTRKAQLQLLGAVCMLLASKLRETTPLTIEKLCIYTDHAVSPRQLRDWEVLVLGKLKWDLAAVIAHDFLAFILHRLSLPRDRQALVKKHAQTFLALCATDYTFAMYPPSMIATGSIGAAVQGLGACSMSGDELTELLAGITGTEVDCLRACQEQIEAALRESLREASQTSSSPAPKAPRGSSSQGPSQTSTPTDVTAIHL
2) 1× Kinase Base Buffer (CDK4).
as §4, §5, §18, §19, §20, §7, §8, §9, §10, §11, §12, §13, §14, §15

The next test deals with CDK6/cycD3 (Homo sapiens, UniProt Q00534). The experiment in a line: Determination of CDK activity (Caliper mobility shift, FAM-P8 peptide): CDK6. The settings on record: CDK6/cycD3; read-out: CDK6 enzymatic inhibitory activity (IC50). The procedure:
as §1, §16, §2, §3, §4, §5, §18, §19, §20, §7, §8, §9, §10, §11, §12, §13, §14, §15

Another test concerns the target CDK2/CycA2 (Homo sapiens, UniProt P24941). The experiment in a line: Determination of CDK activity (Caliper mobility shift, FAM-P8 peptide): CDK2. The settings on record: CDK2/CycA2; read-out: CDK2 enzymatic inhibitory activity (IC50). The procedure:
as §1, §2, §3, §4, §5, §6, §7, §8, §9, §10, §11, §12, §13, §14, §15

pIC50: −log10 of the molar value. A value given as a limit tells only on which side of the number the result lay.

From patent US11179391B2, “Compound with kinase inhibitory activity and preparation method and use thereof” (priority 2017, dated 2021) come the findings set out here.

What is called pIC50 is the negative decadic logarithm of the IC50, by convention in mol/L.

Sequence of CDK6/cycD3 (Q00534 whole entry): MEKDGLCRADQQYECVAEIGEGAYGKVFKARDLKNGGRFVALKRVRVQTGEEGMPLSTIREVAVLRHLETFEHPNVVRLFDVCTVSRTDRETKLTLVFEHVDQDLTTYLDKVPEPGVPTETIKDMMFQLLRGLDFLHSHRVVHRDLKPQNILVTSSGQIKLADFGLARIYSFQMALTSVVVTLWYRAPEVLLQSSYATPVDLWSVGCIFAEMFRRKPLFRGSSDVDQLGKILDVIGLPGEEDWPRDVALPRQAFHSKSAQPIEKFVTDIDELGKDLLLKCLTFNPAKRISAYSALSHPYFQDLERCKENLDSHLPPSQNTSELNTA
Sequence of CDK6/cycD3 (P30281 whole entry partner): as the sequence (P30281 whole entry partner) above
Sequence of CDK1/CyclinB (P06493 whole entry): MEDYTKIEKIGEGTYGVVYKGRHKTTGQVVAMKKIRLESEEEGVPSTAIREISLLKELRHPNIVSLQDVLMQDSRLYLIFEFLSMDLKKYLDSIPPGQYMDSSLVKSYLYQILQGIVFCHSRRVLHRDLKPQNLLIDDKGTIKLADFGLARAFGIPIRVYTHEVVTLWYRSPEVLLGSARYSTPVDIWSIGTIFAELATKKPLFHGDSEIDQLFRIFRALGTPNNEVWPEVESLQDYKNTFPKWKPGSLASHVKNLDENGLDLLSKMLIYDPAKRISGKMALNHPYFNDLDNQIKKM
Sequence of CDK1/CyclinB (P14635 whole entry partner): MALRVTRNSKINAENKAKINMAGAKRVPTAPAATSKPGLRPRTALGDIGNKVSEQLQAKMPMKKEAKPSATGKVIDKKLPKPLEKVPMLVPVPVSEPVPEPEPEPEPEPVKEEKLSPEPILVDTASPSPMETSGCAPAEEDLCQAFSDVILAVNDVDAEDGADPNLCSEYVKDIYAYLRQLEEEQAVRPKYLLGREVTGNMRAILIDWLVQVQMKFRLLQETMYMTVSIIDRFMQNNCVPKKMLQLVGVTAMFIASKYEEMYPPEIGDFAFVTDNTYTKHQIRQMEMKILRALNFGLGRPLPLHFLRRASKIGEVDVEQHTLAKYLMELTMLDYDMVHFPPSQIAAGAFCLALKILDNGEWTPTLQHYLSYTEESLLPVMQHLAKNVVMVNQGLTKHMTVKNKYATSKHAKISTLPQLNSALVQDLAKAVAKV
Sequence of CDK9/cyclinTl (P50750 whole entry): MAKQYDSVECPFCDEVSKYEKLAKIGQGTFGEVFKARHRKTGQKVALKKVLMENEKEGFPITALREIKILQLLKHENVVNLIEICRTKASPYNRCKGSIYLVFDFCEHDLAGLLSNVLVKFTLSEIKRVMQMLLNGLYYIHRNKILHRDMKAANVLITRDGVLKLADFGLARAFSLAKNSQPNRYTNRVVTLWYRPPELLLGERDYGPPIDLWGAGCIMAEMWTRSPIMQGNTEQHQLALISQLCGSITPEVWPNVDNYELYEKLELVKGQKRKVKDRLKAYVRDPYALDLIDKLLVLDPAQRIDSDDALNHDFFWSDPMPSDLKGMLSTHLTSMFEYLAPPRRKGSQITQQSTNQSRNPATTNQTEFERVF
Sequence of CDK9/cyclinTl (O60563 whole entry partner): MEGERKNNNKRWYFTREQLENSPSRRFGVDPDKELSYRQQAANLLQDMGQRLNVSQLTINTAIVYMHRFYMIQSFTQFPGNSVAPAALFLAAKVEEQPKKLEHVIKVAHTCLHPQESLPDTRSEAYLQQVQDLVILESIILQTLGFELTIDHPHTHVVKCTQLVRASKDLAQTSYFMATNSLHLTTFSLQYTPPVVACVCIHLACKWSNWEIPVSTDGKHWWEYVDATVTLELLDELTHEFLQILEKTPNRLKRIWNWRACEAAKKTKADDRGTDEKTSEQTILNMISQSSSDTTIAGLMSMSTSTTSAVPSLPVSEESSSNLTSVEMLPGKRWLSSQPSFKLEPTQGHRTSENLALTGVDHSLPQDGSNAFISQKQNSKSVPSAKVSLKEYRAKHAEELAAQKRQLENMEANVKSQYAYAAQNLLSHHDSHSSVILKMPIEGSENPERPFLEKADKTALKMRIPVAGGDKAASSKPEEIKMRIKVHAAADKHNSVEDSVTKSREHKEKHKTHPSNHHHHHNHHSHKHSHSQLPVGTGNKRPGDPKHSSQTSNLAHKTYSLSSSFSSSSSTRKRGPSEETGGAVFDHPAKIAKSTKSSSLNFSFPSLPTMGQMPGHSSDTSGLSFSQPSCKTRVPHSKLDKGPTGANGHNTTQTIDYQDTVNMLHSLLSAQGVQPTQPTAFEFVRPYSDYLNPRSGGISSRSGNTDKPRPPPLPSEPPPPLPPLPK

Regarding `CCN1CCC(C(C)c2ccc(Nc3ncc(F)c(-c4cc(F)c5nc(C)n(C(C)C)c5c4)n3)nc2)CC1` (racemic) [Example 16, N-(5-(1-(1-ethylpiperidin-4-yl)ethyl)pyridin-2-yl)-5-fluoro-4-(4-fluoro-1-isopropyl-2-methyl-1H-benzo[d]imidazol-6-yl)pyrimidin-2-amine], the pIC50 on CDK1/CyclinB is 6.30 to 7.00; on CDK7/CyclinH/MAT1 it was 5.00 to 6.00; at CDK9/cyclinTl it was 6.30 to 7.00; at CDK4/CycD3, > 7.00; at CDK6/cycD3, > 7.00; at CDK2/CycA2 it was > 7.00.

For `CCN1CCC(=C(C)c2ccc(Nc3ncc(F)c(-c4cc(F)c5nc(C)n(C(C)C)c5c4)n3)nc2)CC1` [Example 58, N-(5-(1-(1-ethylpiperidin-4-ylidene)ethyl)pyridin-2-yl)-5-fluoro-4-(4-fluoro-1-isopropyl-2-methyl-1H-benzo[d]imidazol-6-yl)pyrimidin-2-amine], the pIC50 on CDK1/CyclinB was 6.00 to 6.30; on CDK7/CyclinH/MAT1, 5.00 to 6.00; at CDK9/cyclinTl, 6.30 to 7.00; at CDK4/CycD3, > 7.00; at CDK6/cycD3, 6.30 to 7.00; at CDK2/CycA2, 6.30 to 7.00.

For `CCN1CCC(C(OC(C)=O)c2ccc(Nc3ncc(F)c(-c4cc(F)c5nc(C)n(C(C)C)c5c4)n3)nc2)CC1` (single isomer, unassigned) [Example 71, (R or S)-(1-ethylpiperidin-4-yl) (6-((5-fluoro-4-(4-fluoro-1-isopropyl-2-methyl-1H-benzo[d]imidazol-6-yl)pyrimidin-2-yl)amino)pyridin-3-yl) methyl acetate], the negative logarithm of the IC50 (pIC50) on CDK1/CyclinB was 6.30 to 7.00; at CDK7/CyclinH/MAT1, 5.00 to 6.00; at CDK9/cyclinTl, 6.30 to 7.00; on CDK4/CycD3, > 7.00; on CDK6/cycD3, > 7.00; on CDK2/CycA2, > 7.00.

With `Cc1nc2c(F)cc(-c3nc(Nc4ccc(C=C5CCN(C(C)C)CC5)cn4)ncc3F)cc2n1C(C)C` [Example 64], the pIC50 was 5.00 to 6.00 on CDK1/CyclinB; 4.00 to 5.00 on CDK7/CyclinH/MAT1; 6.30 to 7.00 at CDK9/cyclinTl; > 7.00 on CDK4/CycD3; 6.30 to 7.00 at CDK6/cycD3; 6.30 to 7.00 at CDK2/CycA2.

Consider `Cc1nc2c(F)cc(-c3nc(Nc4ccc(C=C5CCN(C)CC5)cn4)ncc3F)cc2n1C(C)C` [Example 60], for which the pIC50 on CDK1/CyclinB is 6.00 to 6.30; at CDK7/CyclinH/MAT1, 5.00 to 6.00; on CDK9/cyclinTl, 6.30 to 7.00; on CDK4/CycD3 it was > 7.00; at CDK6/cycD3, 6.30 to 7.00; at CDK2/CycA2 it was 6.30 to 7.00.

As for `CCN1CCC(C(O)c2ccc(Nc3ncc(F)c(-c4cc(F)c5nc(C)n(C(C)C)c5c4)n3)nc2)CC1` (single isomer, unassigned) [Example 41, (R or S)-(1-ethylpiperidin-4-yl)(6-((5-fluoro-4-(4-fluoro-1-isopropyl-2-methyl-1H-benzo [d]imidazol-6-yl)pyrimidin-2-yl)amino)pyridin-3-yl) methanol], the pIC50 at CDK1/CyclinB was 6.30 to 7.00; at CDK7/CyclinH/MAT1 it was 6.00 to 6.30; on CDK9/cyclinTl, 6.30 to 7.00; at CDK4/CycD3, > 7.00; on CDK6/cycD3 it was > 7.00; on CDK2/CycA2 it was > 7.00.

In the case of `Cc1nc2c(F)cc(-c3nc(Nc4ccc(C=C5CCN(C6CC6)CC5)cn4)ncc3F)cc2n1C(C)C` [Example 66], the pIC50 at CDK1/CyclinB was 6.30 to 7.00; on CDK7/CyclinH/MAT1, 5.00 to 6.00; at CDK9/cyclinTl, 6.30 to 7.00; at CDK4/CycD3, > 7.00; on CDK6/cycD3 it was > 7.00; at CDK2/CycA2, > 7.00.
